Test results from PMC11599207, “Identification of IspD as a novel target for tuberculosis treatment using compound M6” (Frontiers in Microbiology, 2024).

Biological target: T1, IspD (2-C-methyl-D-erythritol 4-phosphate cytidylyltransferase) (Mycolicibacterium smegmatis, UniProt A0R560)
T1 construct: recombinant IspD from pET28a-ispD, His trap purified, approximately 26 kDa
T1 sequence (A0R560 1-222): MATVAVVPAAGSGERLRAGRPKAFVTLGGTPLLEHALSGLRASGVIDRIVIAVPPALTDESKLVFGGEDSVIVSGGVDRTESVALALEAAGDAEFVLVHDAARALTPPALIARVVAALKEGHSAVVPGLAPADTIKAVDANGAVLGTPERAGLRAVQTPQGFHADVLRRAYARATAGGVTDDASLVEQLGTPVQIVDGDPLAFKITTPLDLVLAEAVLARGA
Assay: ammonium molybdate pyrophosphate absorbance assay; double-reciprocal kinetics
Format: biochemical

| SMILES | ammonium molybdate pyrophosphate absorbance assay; double-reciprocal kinetics |
| --- | --- |
| Nc1ccn([C@@H]2O[C@H](COP(=O)(O)OP(=O)(O)OP(=O)(O)O)[C@@H](O)[C@H]2O)c(=O)n1 [CTP] | M6 acts as a non-competitive inhibitor of the substrate CTP (Figure 3D) |
| C[C@](O)(CO)[C@H](O)COP(=O)(O)O [MEP, 2-C-methyl-D-erythritol 4-phosphate] | indicating that M6 acts as a non-competitive inhibitor of the substrate MEP |
